Test results reported in US7332476B2, “Pyridyl substituted ketolide antibiotics” (Novartis AG, priority 2003, dated 2008).
Values after ≈ are worked out from the molar mass of the structure shown.

Assays:
Test in all cases: MIC, broth microdilution (NCCLS)
[1] = tested on: Enterococcus faecalis Enfa_29212; assay type: cell-based; conditions: Table 7, Strain ID D (Table 6): E. faecalis Enfa_29212
Description: (§1) Strains. The bacterial isolates listed in Table 4 were cultivated from −70° C. frozen stocks by two consecutive overnight passages (P1, P2) at 35° C. on 5% blood agar (Remel, Lenexa, Kans.). Chocolate agar (Remel) is used for Haemophilus influenzae. H. influenzae and Streptococcus pneumoniae are incubated in 5-10% CO2
(§2) Drug Stock Preparation. To determine the amount of solvent to be used to give the desired final concentration, the formula “weight obtained in mg/final concentration in mg/ml” will be used. It will give the amount of solvent in ml needed to be added to give the desired concentration. For example, if 2.5 mg/ml is the desired concentration and the weight of compound is 13.7 mg, then the amount of solvent to be added is […]. Methanol is used as the solvent to dissolve the test compounds. Further dilution of stock is done in sterile, deionized water. Drug stocks are kept frozen at −70° C., protected from light.
(§3) Susceptibility Testing. MICs are determined by the broth microdilution method in accordance with the NCCLS guidelines. In brief, organism suspensions are adjusted to a 0.5 McFarland standard to yield a final inoculum between 3×10^5 and 7×10^5 CFU/ml. Drug dilutions and inocula are made in sterile, cation adjusted Mueller-Hinton Broth (CAMHB) (Remel) for all but S. pneumoniae [CAMHB with 2-5% lysed horse blood (Remel)] and H. influenzae [Haemophilus Test Medium (Remel)]. An inoculum volume of 100 μl is added to wells containing 100 μl of broth with 2-fold serial dilutions of drug. All inoculated microdilution trays are incubated in ambient air at 35° C. for 18-24 hours, except for S. pneumoniae, and H. influenzae (both at 5-10% CO2).
(§4) Following appropriate incubation, the MIC is determined and the MIC is defined as the lowest concentration of the drug that prevented visible growth.
as §1, with “8” for “4”
(§5) Following appropriate incubation, the MIC is determined and the MIC is defined as the lowest concentration of the drug that prevented visible growth. […] Antibacterial activity of representative compounds of the invention were compared against telitromycin.

[2] = tested on: Haemophilus influenzae Hain_49247; assay type: cell-based; conditions: Table 7, Strain ID M (Table 6): H. influenzae Hain_49247; unit assumed
Description: as §1, §2, §3, §4
as §1, with “8” for “4”
as §5

[3] = tested on: Staphylococcus aureus Stau_29213; assay type: cell-based; conditions: Table 7, Strain ID A (Table 6): S. aureus Stau_29213; in µg/mL (unit assumed)
Description: as §1, §2, §3, §4
as §1, with “8” for “4”
as §5

[4] = tested on: Staphylococcus epidermidis Step_14990; assay type: cell-based; conditions: Table 7, Strain ID B (Table 6): S. epidermidis Step_14990; in µg/mL (unit assumed)
Description: as §1, §2, §3, §4
as §1, with “8” for “4”
as §5

[5] = tested on: Staphylococcus epidermidis Step_f50654; assay type: cell-based; conditions: Table 7, Strain ID C (Table 6): S. epidermidis Step_f50654; in µg/mL (unit assumed)
Description: as §1, §2, §3, §4
as §1, with “8” for “4”
as §5

[6] = tested on: Streptococcus pneumoniae Stpn_Erm S 4297; assay type: cell-based; conditions: Table 7, Strain ID J (Table 6): S. pneumoniae Stpn_Erm S 4297
Description: as §1, §2, §3, §4
as §1, with “8” for “4”
as §5

[7] = tested on: Streptococcus pneumoniae Stpn_Mef S 3427; assay type: cell-based; conditions: Table 7, Strain ID L (Table 6): S. pneumoniae Stpn_Mef S 3427
Description: as §1, §2, §3, §4
as §1, with “8” for “4”
as §5

[8] = tested on: Streptococcus pyogenes Stpy_8668; assay type: cell-based; conditions: Table 7, Strain ID E (Table 6): S. pyogenes Stpy_8668
Description: as §1, §2, §3, §4
as §1, with “8” for “4”
as §5

[9] = tested on: Streptococcus pneumoniae Stpn_49619; assay type: cell-based; conditions: Table 7, Strain ID F (Table 6): S. pneumoniae Stpn_49619
Description: as §1, §2, §3, §4
as §1, with “8” for “4”
as §5

[10] = tested on: Streptococcus pneumoniae Stpn_297-749; assay type: cell-based; conditions: Table 7, Strain ID G (Table 6): S. pneumoniae Stpn_297-749
Description: as §1, §2, §3, §4
as §1, with “8” for “4”
as §5

[11] = tested on: Streptococcus pneumoniae Stpn_280-962; assay type: cell-based; conditions: Table 7, Strain ID H (Table 6): S. pneumoniae Stpn_280-962
Description: as §1, §2, §3, §4
as §1, with “8” for “4”
as §5

[12] = tested on: S. pneumoniae Stpn_Erm 6849; assay type: cell-based, Streptococcus pneumoniae; conditions: Table 7, Strain ID I (Table 6): S. pneumoniae Stpn_Erm 6849
Description: as §1, §2, §3, §4

[13] = tested on: Streptococcus pneumoniae Stpn_Mef 5654; assay type: cell-based; conditions: Table 7, Strain ID K (Table 6): S. pneumoniae Stpn_Mef 5654; in µg/mL (unit assumed)
Description: as §1, §2, §3, §4
as §1, with “8” for “4”
as §5

SMILES | MIC [1] | MIC [2] | MIC [3] | MIC [4] | MIC [5] | MIC [6] | MIC [7] | MIC [8] | MIC [9] | MIC [10] | MIC [11] | MIC ([12]; unit assumed) | MIC [13] | MIC ([1]; in µg/mL (unit assumed)) | MIC [12] | MIC ([7]; in µg/mL (unit assumed)) | MIC ([6]; unit assumed)
CCC1OC(=O)C(C)C(=O)C(C)C(OC2OC(C)CC(N(C)C)C2O)C(C)(OC)CC(C)C(=O)C(C)C2C1OC(=O)N2CCCCn1ccc2ncccc21 (stereo not shown) [Compound 20m] | =0.05 | 1.56 µg/mL (≈ 2.02 µM) | 0.2 | 0.1 | 0.2 | =0.05 | =0.05 | =0.05 | =0.05 | =0.05 | =0.05 | 0.2 µg/mL (≈ 0.259 µM) | 0.2 |  |  |  | 
CC[C@H]1OC(=O)[C@@](C)(F)C(=O)[C@H](C)[C@@H](OC2O[C@H](C)C[C@H](N(C)C)[C@H]2O)[C@@](C)(OC)C[C@@H](C)C(=O)[C@H](C)[C@H]2N(CCCCc3ccc4ccccc4n3)C(=O)O[C@]12CC (stereo partly drawn) [65 (1), (3aS,4R,7S,9R,10R,11S,13R,15R,15aR)-3a,4-DIETHYL-7-FLUORO-11-METHOXY-7,9,11,13,15-PENTAMETHYL-2,6,8,14-TETRAOXO-1-(4-QUINOLIN-2-YLBUTYL)TETRADECAHYDRO-2H-OXACYCLOTETRADECINO[4,3-D][1,3]OXAZOL-10-YL-3,4,6-TRIDEOXY-3-(DIMETHYLAMINO)-D-XYLO-HEXOPYRANOSIDE] |  | 3.13 µg/mL (≈ 3.78 µM) | 0.2 | 0.2 | 0.2 | =0.05 | =0.05 | =0.05 |  |  |  |  | 0.2 | 0.1 | =0.05 |  | 
CC[C@H]1OC(=O)[C@H](C)C(=O)[C@H](C)[C@@H](OC2O[C@H](C)C[C@H](N(C)C)[C@H]2O)[C@@](C)(OC)C[C@@H](C)C(=O)[C@H](C)[C@H]2N(CCCCn3cnc(-c4ccc(F)nc4)c3)C(=O)O[C@]12CC (stereo partly drawn) [Example 33, (3aS,4R,7R,9R,10R,11S,13R,15R,15aR)-3a,4-DIETHYL-1-14-[4-(6-FLUOROPYRIDIN-3-YL)-1H-IMIDAZOL-1-YL]BUTYL}-11-METHOXY-7,9,11,13,15-PENTAMETHYL-2,6,8,14-TETRAOXOTETRADECAHYDRO-1H-OXACYCLOTETRADECINO[4,3-D][1,3]OXAZOL-10-YL-3,4,6-TRIDEOXY-3-(DIMETHYLAMINO)-D-XYLO-HEXOPYRANOSIDE] |  |  |  |  |  |  |  | =0.05 |  | =0.05 | =0.05 |  |  |  | =0.05 |  | 
CC[C@H]1OC(=O)[C@H](C)C(=O)[C@H](C)[C@@H](OC2O[C@H](C)C[C@H](N(C)C)[C@H]2O)[C@@](C)(OC)C[C@@H](C)C(=O)[C@H](C)[C@H]2N(CCCOc3cccc(-c4cccnc4)c3)C(=O)O[C@]12CC (stereo partly drawn) [Example 35, (3aS,4R,7R,9R,10R,11S,13R,15R,15aR)-3a,4-diethyl-11-methoxy-7,9,11,13,15-pentamethyl-2,6,8,14-tetraoxo-1-[3-(3-pyridin-3-ylphenoxy)propyl]tetradecahydro-1H-oxacyclotetradecino[4,3-d][1,3]oxazol-10-yl-3,4,6-trideoxy-3-(dimethylamino)-D-xylo-hexopyranoside] |  |  |  |  |  |  |  |  |  | =0.05 | =0.05 |  |  |  | =0.05 |  | 
C=C[C@]12OC(=O)N(CCCCn3cnc(-c4cccnc4)c3)[C@@H]1[C@@H](C)C(=O)[C@H](C)C[C@](C)(OC)[C@H](OC1O[C@H](C)C[C@H](N(C)C)[C@H]1O)[C@@H](C)C(=O)[C@@H](C)C(=O)O[C@@H]2CC (stereo partly drawn) [Example 48, (3aS,4R,7R,9R,10R,11R,13R,15R,15aR)-4-ETHYL-11-METHOXY-7,9,11,13,15-PENTAMETHYL-2,6,8,14-TETRAOXO-1-[4-(4-PYRIDIN-3-YL-1H-IMIDAZOL-1-YL)BUTYL]-3a-VINYLTETRADECAHYDRO-1H-OXACYCLOTETRADECINO[4,3-D][1,3]OXAZOL-10-YL-3,4,6-TRIDEOXY-3-(DIMETHYLAMINO)-D-XYLO-HEXOPYRANOSIDE] |  | 3.13 µg/mL (≈ 3.8 µM) | 0.2 | 0.2 | 0.2 | =0.05 |  | =0.05 | =0.05 | =0.05 | =0.05 | 0.4 µg/mL (≈ 0.485 µM) | 0.78 | 0.1 |  | 0.1 | 
CCC1OC(=O)C(C)C(=O)C(C)C(OC2OC(C)CC(N(C)C)C2O)C(C)(OC)CC(C)C(=O)C(C)C2C1OC(=O)N2CCCOc1cccc(-c2cccnc2)c1 (stereo not shown) [Compound 20s] |  | 3.13 µg/mL (≈ 3.86 µM) | 0.78 | 0.78 | 0.4 |  | =0.05 | =0.05 | =0.05 | =0.05 | =0.05 | 12.5 µg/mL (≈ 15.4 µM) | 0.78 | 0.2 |  |  | 0.2 µg/mL (≈ 0.247 µM)
CC[C@H]1OC(=O)[C@H](C)C(=O)[C@H](C)[C@@H](OC2O[C@H](C)C[C@H](N(C)C)[C@H]2O)[C@@](C)(OC)C[C@@H](C)C(=O)[C@H](C)[C@H]2N(CCCCn3cc(-c4cccnc4)nc3C)C(=O)O[C@]12CC (stereo partly drawn) [Example 20, (3aS,4R,7R,9R,10R,11S,13R,15R,15aR)-3a,4-diethyl-11-methoxy-7,9,11,13,15-pentamethyl-1-[4-(2-methyl-4-pyridin-3-yl-1H-imidazol-1-yl)butyl]-2,6,8,14-tetraoxotetradecahydro-2H-oxacyclotetradecino[4,3-d][1,3]oxazol-10-yl-3,4,6-trideoxy-3-(dimethylamino)-D-xylo-hexopyranoside] |  |  |  |  |  | =0.05 | =0.05 | =0.05 | =0.05 | =0.05 | =0.05 |  |  |  | =0.5 |  | 
CC[C@H]1OC(=O)[C@H](C)C(=O)[C@H](C)[C@@H](OC2O[C@H](C)C[C@H](N(C)C)[C@H]2O)[C@@](C)(OC)C[C@@H](C)C(=O)[C@H](C)[C@H]2N(CCCCc3ncc(-c4cccc(N)c4)s3)C(=O)O[C@]12CC (stereo partly drawn) [Example 34, (3aS,4R,7R,9R,10R,11S,13R,15R,15aR)-1-{4-[5-(3-AMINOPHENYL)-1,3-THIAZOL-2-YL]BUTYL}-3a,4-DIETHYL-11-METHOXY-7,9,11,13,15-PENTAMETHYL-2,6,8,14-TETRAOXOTETRADECAHYDRO-1H-OXACYCLOTETRADECINO[4,3-D][1,3]OXAZOL-10-YL 3,4,6-TRIDEOXY-3-(DIMETHYLAMINO)-D-XYLO-HEXOPYRANOSIDE] |  |  |  |  |  |  |  | =0.05 |  | =0.05 | =0.05 |  |  |  | =0.05 |  | 
